Activity calls are given as the source filed them. The calls are words filed in the database; no cut-off is given here.
What was measured:
[1] = target: Tyrosine-protein kinase JAK2 (Homo sapiens) (UniProt O60674); assay: Inhibition of IL-6-induced JAK2 phosphorylation at Tyr1007/1008 residues in human U266 cells at 10 and 20 uM pre-incubated for 1 hr before IL-6 stimulation for 10 to 15 mins by Western blot analysis; assay type: cell-based
Hep 3B2 [2] = assay: Inhibition of IL-6-induced ICAM1 gene expression in human Hep3B cells pre-incubated for 1 hr before IL-6 stimulation for 6 hrs by RT-PCR method; assay type: functional, cell-based
[3] = target: T1, Interleukin-6 receptor subunit beta (Homo sapiens) (UniProt P40189); assay: Inhibition of IL-6-induced gp130 phosphorylation in human U266 cells at 10 and 20 uM pre-incubated for 1 hr before IL-6 stimulation for 10 to 15 mins by Western blot analysis; assay type: cell-based
T1 sequence (whole entry): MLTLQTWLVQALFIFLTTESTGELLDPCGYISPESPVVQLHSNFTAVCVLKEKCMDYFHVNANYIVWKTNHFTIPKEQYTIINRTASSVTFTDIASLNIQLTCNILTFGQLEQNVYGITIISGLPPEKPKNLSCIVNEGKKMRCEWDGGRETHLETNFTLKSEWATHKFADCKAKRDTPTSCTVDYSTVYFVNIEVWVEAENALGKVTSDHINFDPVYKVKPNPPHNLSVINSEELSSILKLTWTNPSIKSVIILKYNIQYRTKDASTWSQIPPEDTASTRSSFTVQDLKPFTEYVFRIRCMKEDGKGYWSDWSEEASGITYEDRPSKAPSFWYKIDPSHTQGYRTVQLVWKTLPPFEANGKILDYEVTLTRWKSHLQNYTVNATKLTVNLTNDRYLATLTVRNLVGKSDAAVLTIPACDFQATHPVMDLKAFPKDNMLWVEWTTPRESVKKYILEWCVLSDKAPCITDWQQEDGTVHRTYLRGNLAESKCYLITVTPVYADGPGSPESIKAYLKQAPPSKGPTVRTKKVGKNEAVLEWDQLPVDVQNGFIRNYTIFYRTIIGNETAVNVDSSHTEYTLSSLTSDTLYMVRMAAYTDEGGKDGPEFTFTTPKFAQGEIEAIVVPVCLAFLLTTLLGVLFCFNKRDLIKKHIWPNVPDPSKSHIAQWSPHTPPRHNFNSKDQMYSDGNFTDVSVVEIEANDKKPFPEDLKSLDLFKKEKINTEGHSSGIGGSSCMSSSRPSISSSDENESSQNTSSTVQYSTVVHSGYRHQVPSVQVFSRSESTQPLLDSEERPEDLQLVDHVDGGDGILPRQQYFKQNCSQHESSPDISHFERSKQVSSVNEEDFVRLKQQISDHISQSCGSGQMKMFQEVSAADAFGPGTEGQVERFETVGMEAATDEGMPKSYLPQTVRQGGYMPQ

Homo sapiens [4] = species on record: Homo sapiens; assay: Inhibition of IL-6 binding to human recombinant soluble IL-6R incubated for 2 hrs by solid phase ligand binding assay
Homo sapiens [5] = species on record: Homo sapiens; assay: Inhibition of IL-6-induced ERK phosphorylation at Tyr202/204 residues in human U266 cells at 10 to 20 uM pre-incubated for 1 hr before IL-6 stimulation for 10 to 15 mins by Western blot analysis; assay type: cell-based
[6] = target: Signal transducer and activator of transcription 3 (Homo sapiens) (UniProt P40763); assay: Inhibition of IL-6-induced pSTAT3 nuclear translocation in human Hep3B cells at 10 and 20 uM pre-incubated for 1 hr before IL-6 stimulation for 30 mins by DAPI staining based immunofluorescence microscopy; assay type: cell-based
Chain of Signal transducer and activator of transcription 3 (Homo sapiens) (P40763 whole entry): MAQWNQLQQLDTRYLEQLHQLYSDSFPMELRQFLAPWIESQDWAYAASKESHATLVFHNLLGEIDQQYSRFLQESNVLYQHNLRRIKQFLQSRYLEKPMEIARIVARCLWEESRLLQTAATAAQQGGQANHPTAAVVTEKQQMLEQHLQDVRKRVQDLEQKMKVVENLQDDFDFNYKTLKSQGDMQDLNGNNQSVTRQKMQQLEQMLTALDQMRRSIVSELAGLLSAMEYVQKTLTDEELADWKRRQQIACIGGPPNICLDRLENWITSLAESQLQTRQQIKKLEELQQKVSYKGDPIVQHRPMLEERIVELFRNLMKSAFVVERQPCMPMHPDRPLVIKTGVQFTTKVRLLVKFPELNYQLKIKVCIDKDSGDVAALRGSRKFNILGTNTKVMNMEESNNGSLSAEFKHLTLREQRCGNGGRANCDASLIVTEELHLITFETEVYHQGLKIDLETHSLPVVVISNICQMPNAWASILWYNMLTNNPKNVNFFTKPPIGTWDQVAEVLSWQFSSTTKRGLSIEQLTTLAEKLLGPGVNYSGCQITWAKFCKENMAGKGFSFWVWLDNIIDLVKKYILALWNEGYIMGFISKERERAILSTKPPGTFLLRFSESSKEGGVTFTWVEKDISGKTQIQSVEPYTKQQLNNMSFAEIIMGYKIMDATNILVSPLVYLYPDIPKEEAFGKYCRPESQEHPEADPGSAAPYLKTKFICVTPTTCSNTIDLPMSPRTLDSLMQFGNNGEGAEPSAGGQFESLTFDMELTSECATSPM

[7] = target: Signal transducer and activator of transcription 3 (Homo sapiens) (UniProt P40763); assay: Inhibition of IL-6-induced pSTAT3 nuclear translocation in human U266 cells at 20 uM pre-incubated for 1 hr before IL-6 stimulation for 30 mins by DAPI staining based immunofluorescence microscopy; assay type: cell-based
Hep 3B2 [8] = assay: Inhibition of IL-6-induced SOCS3 gene expression in human Hep3B cells pre-incubated for 1 hr before IL-6 stimulation for 6 hrs by RT-PCR method; assay type: functional, cell-based
[9] = target: Signal transducer and activator of transcription 3 (Homo sapiens) (UniProt P40763); assay: Inhibition of IL6-induced STAT3 phosphorylation in human Hep3B cells incubated for 12 hrs in presence of IL6 by luciferase reporter gene assay; assay type: cell-based
Hep 3B2 [10] = assay: Inhibition of IL-6-induced IL-1beta gene expression in human Hep3B cells pre-incubated for 1 hr before IL-6 stimulation for 6 hrs by RT-PCR method; assay type: functional, cell-based
Hep 3B2 [11] = assay: Cytotoxicity against human Hep3B cells assessed as cell viability at 1 to 20 uM incubated for 24 hrs by MTT assay; assay type: cell-based; conditions: hep 3b2, 24 h
Hep 3B2 [12] = assay: Inhibition of IL-6-induced CRP gene expression in human Hep3B cells pre-incubated for 1 hr before IL-6 stimulation for 6 hrs by RT-PCR method; assay type: functional, cell-based
[13] = target: Signal transducer and activator of transcription 3 (Homo sapiens) (UniProt P40763); assay: Inhibition of IL-6-induced STAT3 phosphorylation at Tyr 705 residue in human U266 cells at 10 to 20 uM pre-incubated for 1 hr before IL-6 stimulation for 15 mins by Western blot analysis; assay type: cell-based

Chain of Tyrosine-protein kinase JAK2 (Homo sapiens) (O60674 whole entry): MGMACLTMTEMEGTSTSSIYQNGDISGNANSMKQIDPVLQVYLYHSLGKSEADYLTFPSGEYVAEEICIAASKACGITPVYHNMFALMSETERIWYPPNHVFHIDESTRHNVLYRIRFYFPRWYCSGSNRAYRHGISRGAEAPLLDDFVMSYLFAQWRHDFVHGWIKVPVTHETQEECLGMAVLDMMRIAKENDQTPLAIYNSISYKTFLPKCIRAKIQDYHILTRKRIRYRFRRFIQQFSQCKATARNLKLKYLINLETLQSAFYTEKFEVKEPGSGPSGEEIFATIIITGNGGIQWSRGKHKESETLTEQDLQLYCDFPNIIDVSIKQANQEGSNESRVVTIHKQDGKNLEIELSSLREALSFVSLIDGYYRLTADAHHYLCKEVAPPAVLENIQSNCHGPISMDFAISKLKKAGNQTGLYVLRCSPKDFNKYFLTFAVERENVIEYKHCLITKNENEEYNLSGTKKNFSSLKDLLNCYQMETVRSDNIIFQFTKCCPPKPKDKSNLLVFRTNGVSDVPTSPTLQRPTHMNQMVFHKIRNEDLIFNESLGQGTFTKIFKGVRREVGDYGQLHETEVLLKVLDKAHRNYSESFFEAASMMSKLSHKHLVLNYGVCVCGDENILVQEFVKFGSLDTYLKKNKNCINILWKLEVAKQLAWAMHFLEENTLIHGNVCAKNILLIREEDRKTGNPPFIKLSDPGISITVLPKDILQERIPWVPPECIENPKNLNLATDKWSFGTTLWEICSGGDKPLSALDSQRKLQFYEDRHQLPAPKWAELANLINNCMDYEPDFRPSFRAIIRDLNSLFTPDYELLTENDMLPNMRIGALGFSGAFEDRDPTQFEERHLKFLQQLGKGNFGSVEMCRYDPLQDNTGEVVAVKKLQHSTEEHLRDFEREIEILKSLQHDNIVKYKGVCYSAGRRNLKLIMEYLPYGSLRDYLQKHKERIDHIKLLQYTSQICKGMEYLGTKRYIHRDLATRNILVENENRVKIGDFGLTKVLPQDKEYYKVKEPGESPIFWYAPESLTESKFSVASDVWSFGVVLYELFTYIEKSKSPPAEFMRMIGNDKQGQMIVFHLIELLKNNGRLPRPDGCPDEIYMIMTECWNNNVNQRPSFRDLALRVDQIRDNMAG

- inhibition [1]: Dose-dependent effect
- inhibition [3]: Dose-dependent effect
- inhibition (Homo sapiens [4]): inactive
- inhibition [6]: Active
- inhibition [7]: Active
- inhibition [9]: Dose-dependent effect
- inhibition [13]: Active
SMILES: COc1cc2oc(-c3ccc(O)c(O)c3)cc(=O)c2c(O)c1OC [CIRSILIOL]
- inhibition (Hep 3B2 [2]): Dose-dependent effect
- inhibition (Homo sapiens [5]): Active
- inhibition (Hep 3B2 [8]): Dose-dependent effect
- inhibition (Hep 3B2 [10]): Dose-dependent effect
- Activity (Hep 3B2 [11]): Non-Toxic
- inhibition (Hep 3B2 [12]): Dose-dependent effect

— ChEMBL document CHEMBL4387725, “In vitro inhibitory effects of cirsiliol on IL-6-induced STAT3 activation through anti-inflammatory activity” (Bioorg Med Chem Lett, 2019)
